# Results published in patent US8486996B2, “Aroylfuranes and aroylthiophenes” (Basilea Pharmaceutica AG, priority 2006, dated 2013).
# Read-outs that look alike come from different tables or passages of the source.
# Assays:
# Assay type in all cases: cell-based
# [1] = Mitochondrial membrane potential, JC-1 (read-out 48 h); settings: PBL, JC-1, 48 h
# Outline: (§1)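 Tumor cells were treated with test compounds (adherent cells after 24 h of attachment, suspension cells immediately), medium holding up to 5% DMSO. After 48 h, JC-1 (2-5 μg/ml in added medium) was applied for 30 min. Fluorescence microscopy (FITC/TRITC filters) scored the fraction of cells with dissipated mitochondrial membrane potential as categories A-D.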
# tumor cells [2] = assay: as above; settings: JC-1, 48 h
# Outline: as §1
# [3] = Hoechst 33342 nuclear staining (48 h read-out)
# Outline: (§2)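 Adherent cells pre-spread 24 h before dosing, suspension cells dosed at seeding; compounds at 0.001 μM-10 μM final, 48 h at culture conditions. Hoechst 33342 (2-5 μg/ml) added for 30 min, then fluorescence microscopy scoring of apoptotic nuclear fraction and apoptosis-specific morphology, reported as scores A-D.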
# tumor cells [4] = assay: Hoechst 33342 nuclear staining (48 h read-out)
# Outline: as §2
# [5] = MTS proliferation assay (72 h read-out); settings: MRC5 cells
# Outline: (§3)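 Tumour cells (1.5×10^3–10^4 per well) were seeded 24 h before compound addition, then exposed to 0.001–10 μM final compound for 72 h under culture conditions. MTS reagent was added for a further 3 h, absorbance was read at 492 nm, and results were binned into scores A–D.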
# tumor cells [6] = assay: MTS proliferation assay (72 h read-out)
# Outline: as §3
# [7] = HeLa cells, read-out: Mitochondrial membrane potential (read-out 48 h) HeLa
# [8] = Jily cells, read-out: Mitochondrial membrane potential (read-out 48 h) Jily
# [9] = Jurkat cells, read-out: Mitochondrial membrane potential (read-out 48 h) Jurkat
# [10] = MCF7 cells, read-out: Mitochondrial membrane potential (read-out 48 h) MCF7
# [11] = MRC5 cells, read-out: Hoechst 33342 nuclear staining EC50, MRC5
# [12] = PBL, read-out: Hoechst 33342 nuclear staining EC50, PBL
# [13] = HeLa cells, read-out: Hoechst 33342 nuclear staining EC50, HeLa
# [14] = Jily cells, read-out: Hoechst 33342 nuclear staining EC50, Jily
# [15] = Jurkat cells, read-out: Hoechst 33342 nuclear staining EC50, Jurkat
# [16] = HT1080 cells, read-out: MTS proliferation assay IC50, HT1080
# [17] = HeLa cells, read-out: MTS proliferation assay IC50, HeLa
# [18] = Jily cells, read-out: MTS proliferation assay IC50, Jily
# [19] = Jurkat cells, read-out: MTS proliferation assay IC50, Jurkat
Structure (SMILES),EC50 [1] [nM],EC50 (tumor cells [2]; [7]) [nM],EC50 (tumor cells [2]; [8]) [nM],EC50 (tumor cells [2]; [9]) [nM],EC50 (tumor cells [2]; [10]) [nM],"EC50 [3, 11] [nM]","EC50 [3, 12] [nM]",EC50 (tumor cells [4]; [13]) [nM],EC50 (tumor cells [4]; [14]) [nM],EC50 (tumor cells [4]; [15]) [nM],IC50 [5] [nM],IC50 (tumor cells [6]; [16]) [nM],IC50 (tumor cells [6]; [17]) [nM],IC50 (tumor cells [6]; [18]) [nM],IC50 (tumor cells [6]; [19]) [nM]
CCOc1ccc(F)cc1C(=O)c1oc2ccc(OC)cc2c1NS(C)(=O)=O [Example 54],> 1000,100 to 1000,100 to 1000,10 to 100,10 to 100,100 to 1000,> 1000,100 to 1000,10 to 100,10 to 100,10 to 100,10 to 100,10 to 100,10 to 100,
COc1ccc2oc(C(=O)c3cccnc3N3CCCCC3C)cc2c1 (centres unmarked) [Example 89],> 1000,100 to 1000,100 to 1000,100 to 1000,100 to 1000,100 to 1000,> 1000,100 to 1000,100 to 1000,100 to 1000,100 to 1000,100 to 1000,100 to 1000,10 to 100,10 to 100
O=C(c1cc2cc(OCc3ccccc3)ccc2o1)c1cc(F)ccc1N1CC=CCC1 [Example 109],> 1000,> 1000,> 1000,> 1000,> 1000,> 1000,> 1000,> 1000,> 1000,> 1000,> 1000,> 1000,> 1000,> 1000,> 1000
CCOc1ccccc1C(=O)c1oc2ccc([N+](=O)[O-])cc2c1N [Example 59],> 1000,> 1000,100 to 1000,10 to 100,> 1000,> 1000,> 1000,100 to 1000,100 to 1000,10 to 100,100 to 1000,10 to 100,100 to 1000,10 to 100,10 to 100
CCOc1ccc(-n2cccc2)cc1C(=O)c1oc2ccc(Cl)cc2c1N [Example 22],> 1000,100 to 1000,100 to 1000,100 to 1000,> 1000,100 to 1000,> 1000,100 to 1000,100 to 1000,100 to 1000,100 to 1000,100 to 1000,100 to 1000,100 to 1000,100 to 1000
O=C(c1cc2cc(O)ccc2o1)c1cc(F)ccc1N1CCOCC1 [Example 107],> 1000,100 to 1000,10 to 100,10 to 100,100 to 1000,100 to 1000,> 1000,100 to 1000,100 to 1000,100 to 1000,10 to 100,10 to 100,10 to 100,10 to 100,10 to 100
"COc1ccccc1C(=O)c1oc2ccc(Cl)cc2c1N [Ref B, reference compound]",100 to 1000,> 1000,100 to 1000,100 to 1000,> 1000,> 1000,> 1000,> 1000,100 to 1000,100 to 1000,100 to 1000,100 to 1000,100 to 1000,100 to 1000,100 to 1000
COc1ccc2oc(C(=O)c3cccnc3N3CC=CCC3)cc2c1 [Example 88],> 1000,10 to 100,10 to 100,10 to 100,10 to 100,100 to 1000,> 1000,100 to 1000,100 to 1000,100 to 1000,< 10,< 10,10 to 100,< 10,< 10
